Test results: US6951887B2 (The Research Foundation of State University of New York, priority 1998, dated 2005)

Columns and labels:
[1] = system: Hep G2; experiment: killing of cultured cells, Hep G2; type: cell-based; design: key to cells killed by treatment: “+” indicates that the cells were killed by treatment; “−” indicates that they were not; “+/−” indicates a slow marginal response seen only in a few special cases with fibroblasts experimentally transformed by introduction of the ras oncogene
Source text: (§1) Table 1: Summarized are the responses of cells in culture to killing by example members of the family of blocked lipoate derivatives that are the object of this invention as well as one control compound (dihydroxyoctanoic acid). At right is indicated the specific cell line followed by the tissue of origin of the cell line. Across the top are listed the specific compounds tested. Each blocked lipoate derivative was used at two to fourfold above its threshold killing concentration. [These concentrations range form 0.15 mM (60 ug/ml or 60 mg/kg) to 2.5 mM (800 ug/ml or 800 mg/kg) (see EXAMPLE 11).] […] “+/−” indicates a slow marginal response seen only in a few special cases with fibroblasts experimentally transformed by introduction of the ras oncogene (EXAMPLE 10).
(§2) First, each cell type to be tested was plated at low densities in the wells of a standard 6×24 well tissue culture plate. (Multiple wells are seeded for each cell type.)
(§3) Second, the cells were allowed to grow to moderate densities. Transformed cells are in contact and non-transformed cells are contact-inhibited under these conditions.
(§4) Third, the lipoate derivatives to be tested were added to individual wells. In these experiments each compound was added at two to fourfold above the threshold killing concentration for cancer cells (EXAMPLE 11).
(§5) Fourth, cells were monitored over the next several days.

[2] = system: HeLa cells; experiment: killing of HeLa cells with or without dichloroacetate (DCA); type: cell-based; details: compound ca. twofold above threshold killing dose plus 5 mM DCA
Protocol: HeLa cells were plated at moderate densities and allowed to attach and grow for ca. 24 hours in a series of wells in a multi-well tissue culture plate. To individual wells of the first subset (control) were added bis-acetyl lipoate, mono-acetyl lipoate or bis-benzoyl lipoate—each at ca. twofold above the threshold killing dose (EXAMPLE 11). To an equivalent (experimental) subset of wells were added these same compounds at the same dose together with the simultaneous addition of DCA to 5 mM final concentration.

[3] = nonspecific toxicity by intraperitoneal injection; details: C57/BL, mouse, in vivo, ip
Protocol: (§6) (All studies described in this section were carried out by intraperitoneal (IP) injection into C57/BL mice.)

[4] = system: C57/BL mice; experiment: nonspecific toxicity by intraperitoneal injection; details: mouse, in vivo, ip
Protocol: as §6

[5] = system: HeLa (Cervix); experiment: killing of cultured cells, HeLa; type: cell-based; design: key to cells killed by treatment: “+” indicates that the cells were killed by treatment; “−” indicates that they were not; “+/−” indicates a slow marginal response seen only in a few special cases with fibroblasts experimentally transformed by introduction of the ras oncogene
Source text: as §1, §2, §3, §4, §5

[6] = system: LnCap (Prostate); experiment: killing of cultured cells, LnCap; type: cell-based; design: key: “+” indicates that the cells were killed by treatment; “−” indicates that they were not; “+/−” indicates a slow marginal response seen only in a few special cases with fibroblasts experimentally transformed by introduction of the ras oncogene; details: compound at two to fourfold above its threshold killing concentration
Source text: as §1, §2, §3, §4, §5

[7] = system: A549 (Lung); experiment: killing of cultured cells, A549; type: cell-based; design: key to cells killed by treatment: “+” indicates that the cells were killed by treatment; “−” indicates that they were not; “+/−” indicates a slow marginal response seen only in a few special cases with fibroblasts experimentally transformed by introduction of the ras oncogene
Source text: as §1, §2, §3, §4, §5

[8] = system: NIH 3T3 ras transformed; experiment: killing of cultured cells, ras-transformed NIH 3T3 (T24); type: cell-based; design: key to cells killed by treatment: “+” indicates that the cells were killed by treatment; “−” indicates that they were not; “+/−” indicates a slow marginal response seen only in a few special cases with fibroblasts experimentally transformed by introduction of the ras oncogene
Source text: as §1, §2, §3, §4, §5
NIH-3T3 cells are relatively normal, noncancerous cells. However, if an activated allele of the ras oncogene is introduced into these cells they become highly malignant (cancerous) as assessed by several assays (REFERENCE).

[9] = system: B-16 melanoma; experiment: B-16 system, cells injected IP; type: in vivo, mouse; details: 100 mg/kg IP twice a day, 16 days, B-16 cells IP in C57/BL mice
Source text: The B-16 melanoma strain was introduced either subcutaneously or intraperitoneally into individuals of the C57/BL syngeneic mouse strain (7). When left untreated such mice develop massive tumors in the immediate area of injection as well as secondary metastases throughout the animal—including in the liver and the lungs. These malignant growths result in the early death of the animals. Moreover, the resulting malignant growths are made up of darkly pigmented malignant melanocytes—making their assessment convenient and highly reliable. We will henceforth refer to this as the “B-16 system”.
First, a group of mice were injected IP with B-16 cells. The injected group was divided at random into two equal subsets. One subset (experimental) was injected IP twice a day with 100 mg/kg of the bis-benzoyl lipoate member of the compound class in 200 ul of 10% ethanol. [See EXAMPLES 3, 8 and 11 for descriptions of bis-benzoyl lipoate.] The second subset (control) was injected with 200 ul of 10% ethanol alone.
After 16 days, the animals were examined—including by dissection where appropriate. The control animals had numerous, massive IP tumor masses.

[10] = system: MCF 7 (Breast); experiment: killing of cultured cells, MCF 7; type: cell-based; design: key: “+” indicates that the cells were killed by treatment; “−” indicates that they were not; “+/−” indicates a slow marginal response seen only in a few special cases with fibroblasts experimentally transformed by introduction of the ras oncogene; details: compound at two to fourfold above its threshold killing concentration
Source text: as §1, §2, §3, §4, §5

SMILES: O=C(O)CCCCC(CCSC(=O)c1ccccc1)SC(=O)c1ccccc1 (stereo not drawn) [bis-benzoyl lipoate, 6,8-bisbenzoylmercaptooctanoic acid]
- cell killing, liver cancer cells (FIG. 1) ([1]; 120 ug/ml, ca. 48 hours): efficiently killed
- cells killed by treatment ([1]; Hep G2, compound at two to fourfold above its threshold killing concentration): +
- speed of cell killing with DCA relative to compound alone [2]: approximately twvice as rapidly
- LD50 [3]: ~1000 mg/kg
- maximum well-tolerated dose [4]: ca. 500 mg/kg
- cells killed by treatment ([5]; Cervix, compound at two to fourfold above its threshold killing concentration): +
- time by which all cancer cells are killed ([5]; conditions of FIG. 3): 48 to 60 h
- cells killed by treatment [6]: +
- cell killing, lung cancer cells (FIG. 1) ([7]; 120 ug/ml, ca. 48 hours): efficiently killed
- cells killed by treatment ([7]; A549, Lung, compound at two to fourfold above its threshold killing concentration): +
- cancerous (transformed) cells killed (FIG. 2) ([8]; 120 ug/ml, 24 hours of treatment, T24 ras-transformed NIH3T3): ca. 50%
- killing of transformed cells (FIG. 2) ([8]; 120 ug/ml, ca. 48 hours of treatment): almost entirely irradicated
- cells killed by treatment ([8]; NIH 3T3 ras transformed, compound at two to fourfold above its threshold killing concentration): +
- tumor mass relative to the control sample [9]: 30-50%
- cells killed by treatment [10]: +
